Measurements as given in ChEMBL document CHEMBL6109105, “Design, synthesis and antibacterial evaluation of oxazolidinone derivatives containing N-methylglycyl or quaternary ammonium salts” (Bioorg Med Chem, 2025).
In brackets after ≈: the same amount, converted by molar mass. Activity calls are given as the source filed them. No cut-off for these calls is given here.

Legend:
Staphylococcus aureus [1] = assay: Antibacterial activity against Staphylococcus aureus ATCC 29213 assessed as inhibition of bacterial growth incubated for 16 to 18 hrs by microbroth dilution method; assay type: functional; settings: time 16-18 hrs, read-out: MIC100
Escherichia coli = assay: Antibacterial activity against Escherichia coli ATCC 25922 assessed as inhibition of bacterial growth incubated for 16 to 18 hrs by microbroth dilution method; assay type: functional; settings: time 16-18 hrs, read-out: MIC100
[2] = test system: Stenotrophomonas maltophilia; assay: Antibacterial activity against Stenotrophomonas maltophilia ATCC 17808 assessed as inhibition of bacterial growth incubated for 16 to 18 hrs by microbroth dilution method; assay type: functional; settings: time 16-18 hrs, read-out: MIC100
[3] = Hemolytic activity in sheep RBC assessed as hemolysis incubated for 1 hrs by microplate reader analysis; assay type: toxicity, cell-based, Ovis aries, Erythrocyte; settings: sheep red blood cells
Enterococcus faecalis [4] = assay: Antibacterial activity against Enterococcus faecalis ATCC 29212 assessed as inhibition of bacterial growth incubated for 16 to 18 hrs by microbroth dilution method; assay type: functional; settings: time 16-18 hrs, read-out: MIC100
[5] = Cytotoxicity against human HeLa cells assessed as cell viability at 64 microg/ml incubated for 24 hrs by CCK8 assay relative to control; assay type: toxicity, cell-based; settings: at 64 µg/mL, read-out: Activity
HeLa = assay: Cytotoxicity against human HeLa cells assessed as increase in red fluorescence at 32 microg/ml incubated for 24 hrs by calcein-AM/PI staining based fluorescence microscopic analysis; assay type: toxicity, cell-based; settings: dose 32 µg/ml
[6] = (§1) Selectivity ratio of MIC for antibacterial activity against Enterococcus faecalis assessed as inhibition of bacterial growth measured immediately in presence of 50% plasma to MIC for antibacterial activity against Enterococcus faecalis assessed as inhibition of bacterial growth assessed as inhibition of bacterial growth measured after 16 to 18 hrs; assay type: functional
Cell membrane = assay: Induction of cytoplasmic membrane permeability in Enterococcus faecalis assessed as increase in fluorescence intensity at 8 times of MIC by PI staining based analysis
Enterococcus faecalis [7] = assay: Antibacterial activity against Enterococcus faecalis assessed as inhibition of bacterial growth incubated for 3 hrs in presence of 50% plasma by dilution method; assay type: functional
[8] = as §1, with “after 3 hrs” for “immediately”; assay type: functional
Enterococcus = assay: Antibacterial activity against vancomycin-resistant enterococcus; assay type: functional
Staphylococcus aureus [9] = assay: Antibacterial activity against methicillin-resistant Staphylococcus aureus; assay type: functional
Staphylococcus aureus [10] = assay: Antibacterial activity against methicillin-sensitive Staphylococcus aureus; assay type: functional
Streptococcus pneumoniae = assay: Antibacterial activity against penicillin-resistant Streptococcus pneumoniae; assay type: functional

## CC(=O)NC[C@H]1CN(c2ccc(N3CCN(C(=O)CN(C)Cc4cccc(C)c4)CC3)c(F)c2)C(=O)O1
Staphylococcus aureus [1]
  MIC: 16 µg/mL (≈ 31.3 µM)
Escherichia coli
  MIC: > 128 µg/mL
[2]
  MIC: > 128 µg/mL
[3]
  HC50 at 1 h: > 1280 µg/mL
Enterococcus faecalis [4]
  MIC: 4 µg/mL (≈ 7.82 µM)

## CC[C@H](C)[C@H](NC(=O)CN)C(=O)NCC(=O)N[C@@H](C)C(=O)N[C@H](C(=O)N[C@@H](CC(C)C)C(=O)N[C@@H](CCCCN)C(=O)N[C@H](C(=O)N[C@@H](CC(C)C)C(=O)N[C@H](C(=O)N[C@H](C(=O)NCC(=O)N[C@@H](CC(C)C)C(=O)N1CCC[C@H]1C(=O)N[C@@H](C)C(=O)N[C@@H](CC(C)C)C(=O)N[C@H](C(=O)N[C@@H](CO)C(=O)N[C@@H](Cc1c[nH]c2ccccc12)C(=O)N[C@H](C(=O)N[C@@H](CCCCN)C(=O)N[C@@H](CCCNC(=N)N)C(=O)N[C@@H](CCCCN)C(=O)N[C@@H](CCCNC(=N)N)C(=O)N[C@@H](CCC(N)=O)C(=O)N[C@@H](CCC(N)=O)C(N)=O)[C@@H](C)CC)[C@@H](C)CC)[C@@H](C)O)[C@@H](C)O)C(C)C)C(C)C [MELITTIN]
[5]
  viability at 24 h, 64 microg/ml: 5.2%
HeLa
  Activity: Toxic
[6]
  Selectivity ratio: >16
Cell membrane
  Activity: Active
Enterococcus faecalis [7]
  MIC: 32 µg/mL
[8]
  Selectivity ratio: >16

## CC(=O)NC[C@H]1CN(c2ccc(N3CCN(C(=O)CN(C)Cc4cccc(C#N)c4)CC3)c(F)c2)C(=O)O1
Staphylococcus aureus [1]
  MIC: 8 µg/mL (≈ 15.3 µM)
Escherichia coli
  MIC: > 128 µg/mL
[2]
  MIC: > 128 µg/mL
[3]
  HC50 at 1 h: > 1280 µg/mL
Enterococcus faecalis [4]
  MIC: 4 µg/mL (≈ 7.65 µM)

## CC(=O)NC[C@H]1CN(c2ccc(N3CCN(C(=O)CN(C)Cc4cccc([N+](=O)[O-])c4)CC3)c(F)c2)C(=O)O1
Staphylococcus aureus [1]
  MIC: 8 µg/mL (≈ 14.7 µM)
Escherichia coli
  MIC: > 128 µg/mL
[2]
  MIC: > 128 µg/mL
[3]
  HC50 at 1 h: > 1280 µg/mL
Enterococcus faecalis [4]
  MIC: 2 µg/mL (≈ 3.69 µM)

## COc1ccccc1CN(C)CC(=O)N1CCN(c2ccc(N3C[C@H](CNC(C)=O)OC3=O)cc2F)CC1
Staphylococcus aureus [1]
  MIC: 16 µg/mL (≈ 30.3 µM)
Escherichia coli
  MIC: > 128 µg/mL
[2]
  MIC: > 128 µg/mL
[3]
  HC50 at 1 h: > 1280 µg/mL
Enterococcus faecalis [4]
  MIC: 2 µg/mL (≈ 3.79 µM)

## CCCCC[N+](C)(C)CC(=O)N1CCN(c2ccc(N3C[C@H](CNC(C)=O)OC3=O)cc2F)CC1.[Br-]
Staphylococcus aureus [1]
  MIC: > 128 µg/mL
Escherichia coli
  MIC: > 128 µg/mL
[2]
  MIC: > 128 µg/mL
[3]
  HC50 at 1 h: > 1280 µg/mL
Enterococcus faecalis [4]
  MIC: 16 µg/mL

## CC(=O)NC[C@H]1CN(c2ccc(N3CCN(C(=O)CN(C)Cc4cccc(Br)c4)CC3)c(F)c2)C(=O)O1
Staphylococcus aureus [1]
  MIC: 8 µg/mL (≈ 13.9 µM)
Escherichia coli
  MIC: > 128 µg/mL
[2]
  MIC: > 128 µg/mL
[3]
  HC50 at 1 h: > 1280 µg/mL
Enterococcus faecalis [4]
  MIC: 4 µg/mL (≈ 6.94 µM)

## CC(=O)NC[C@H]1CN(c2ccc(N3CCN(Cc4ccc([N+](=O)[O-])o4)CC3)c(F)c2)C(=O)O1 [RANBEZOLID]
Enterococcus
  MIC: 0.06 µg/mL (≈ 0.13 µM)
Staphylococcus aureus [9]
  MIC: 0.06 µg/mL (≈ 0.13 µM)
Staphylococcus aureus [10]
  MIC: 0.06 µg/mL (≈ 0.13 µM)
Streptococcus pneumoniae
  MIC: 0.06 µg/mL (≈ 0.13 µM)

## Br.CC(=O)NC[C@H]1CN(c2ccc(N3CCN(C(=O)C[N+](C)(C)Cc4ccc([N+](=O)[O-])cc4)CC3)c(F)c2)C(=O)O1
Staphylococcus aureus [1]
  MIC: 128 µg/mL
Escherichia coli
  MIC: > 128 µg/mL
[2]
  MIC: > 128 µg/mL
[3]
  HC50 at 1 h: > 1280 µg/mL
Enterococcus faecalis [4]
  MIC: 128 µg/mL

## CC(=O)NC[C@H]1CN(c2ccc(N3CCN(C(=O)CN(C)Cc4ccc(C(F)(F)F)cc4)CC3)c(F)c2)C(=O)O1
Staphylococcus aureus [1]
  MIC: 16 µg/mL (≈ 28.3 µM)
Escherichia coli
  MIC: > 128 µg/mL
[2]
  MIC: > 128 µg/mL
[3]
  HC50 at 1 h: > 1280 µg/mL
Enterococcus faecalis [4]
  MIC: 2 µg/mL (≈ 3.54 µM)

## COc1cccc(CN(C)CC(=O)N2CCN(c3ccc(N4C[C@H](CNC(C)=O)OC4=O)cc3F)CC2)c1
Staphylococcus aureus [1]
  MIC: 16 µg/mL (≈ 30.3 µM)
Escherichia coli
  MIC: > 128 µg/mL
[2]
  MIC: > 128 µg/mL
[3]
  HC50 at 1 h: > 1280 µg/mL
Enterococcus faecalis [4]
  MIC: 2 µg/mL (≈ 3.79 µM)

## CC(=O)NC[C@H]1CN(c2ccc(N3CCN(C(=O)C[N+](C)(C)Cc4ccc(C#N)cc4)CC3)c(F)c2)C(=O)O1.[Br-]
Staphylococcus aureus [1]
  MIC: > 128 µg/mL
Escherichia coli
  MIC: > 128 µg/mL
[2]
  MIC: > 128 µg/mL
[3]
  HC50 at 1 h: > 1280 µg/mL
Enterococcus faecalis [4]
  MIC: 32 µg/mL

## CC(=O)NC[C@H]1CN(c2ccc(N3CCN(C(=O)CN(C)Cc4ccc(Cl)cc4)CC3)c(F)c2)C(=O)O1
Staphylococcus aureus [1]
  MIC: 16 µg/mL (≈ 30.1 µM)
Escherichia coli
  MIC: > 128 µg/mL
[2]
  MIC: > 128 µg/mL
[3]
  HC50 at 1 h: > 1280 µg/mL
Enterococcus faecalis [4]
  MIC: 2 µg/mL (≈ 3.76 µM)
